Consider eleven compounds from EP4806894A1, “TNAP INHIBITORY COMPOUND AND USE THEREOF” (Rednvia Co., Ltd., priority 2023, dated 2025).

For test [1], the target named is T1, TNAP (Homo sapiens, UniProt P05186).
T1 sequence (P05186 18-502 limits assumed): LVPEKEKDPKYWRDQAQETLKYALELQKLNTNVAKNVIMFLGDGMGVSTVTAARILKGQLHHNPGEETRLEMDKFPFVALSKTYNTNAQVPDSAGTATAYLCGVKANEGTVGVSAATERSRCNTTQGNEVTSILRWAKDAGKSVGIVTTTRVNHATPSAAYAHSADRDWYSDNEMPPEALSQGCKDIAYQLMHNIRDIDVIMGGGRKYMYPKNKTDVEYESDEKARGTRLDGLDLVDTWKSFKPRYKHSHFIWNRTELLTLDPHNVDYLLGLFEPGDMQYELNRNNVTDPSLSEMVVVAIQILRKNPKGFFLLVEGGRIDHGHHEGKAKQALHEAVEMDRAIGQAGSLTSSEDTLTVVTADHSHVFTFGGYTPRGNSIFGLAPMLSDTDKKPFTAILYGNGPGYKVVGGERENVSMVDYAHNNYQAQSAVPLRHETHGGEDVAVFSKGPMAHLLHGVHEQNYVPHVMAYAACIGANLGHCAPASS
The test can be described thus: TNAP inhibitory activity, colorimetric assay (alkaline phosphatase assay kit ab83369, pNPP substrate). The format is biochemical. The conditions noted are these: TNAP enzyme, 2 hours at room temperature, absorbance 405 nm. Here is the method: The TNAP inhibitory activity of the compounds according to the present invention was analyzed by colorimetric assay.
The experiments were performed according to the protocol of the alkaline phosphatase assay kit ab83369.
TNAP enzyme at a concentration of 0.2 ng/µl was dispensed into a 96-well plate (Costar) (10 µl/well), to which the 10-fold diluted test substance was added (15 µl/well). The plate was incubated at room temperature, shielded from light, for 10 minutes to allow the enzyme and compound to act. After incubation, 125 µl of 1 mM substrate (pNPP) was added to each well of the plate, and the plate was incubated for 2 hours at room temperature in a darkened state to allow the enzyme, substrate, and test compound to act. Absorbance was measured at 405 nm using a microplate reader (Tecan spark), and IC50 was calculated using GraphPad Prism 9. The amount of p-nitrophenol produced was calculated through the absorbance, and the degree of TNAP activity inhibition was evaluated through the degree of inhibition of p-nitrophenol production, and the concentration of the compound that inhibited 50% was calculated as the IC50 value.

The test system of test [2] is saos-2 cells. Description: Anticalcification efficacy in saos-2 cells (osteogenic medium, Alizarin Red staining). The format is cell-based. The following applies: Homo sapiens, 168 h, test compound 1 µM, 7 days osteogenic medium, Alizarin Red absorbance 540 nm, read-out: calcification inhibition. As for the experimental part: To confirm the inhibitory effect of calcification in saos-2 cells in which calcification is induced by overexpression of TNAP, saos-2 cells were cultured in a culture medium in an incubator at 37°C, 95% humidity, and 5% CO2. RPMI-1640 (Corning) supplemented with 10% FBS (Gibco) and 1% Pen/Strep (Gibco) was used as the culture medium.
Saos-2 cells were seeded in a 48-well plate at the density of 1.5 x 10^4 cells/well and used in the experiment when they reached 80-90% confluence after stabilization for 2 days.
After saos-2 cells were cultured in a 48-well plate to 80-90% confluence, the culture medium was removed and replaced with an osteogenic medium (OM). DMEM (Gibco) containing 10% FBS, 1% Pen/Strep, 100 nM dexamethasone (Sigma), 10 mM β-glycerophosphate (Sigma), and 0.05 mM L-ascorbic acid (Sigma) was used as the OM. Osteogenic differentiation of saos-2 cells by OM was induced for 7 days, and OM was replaced every 2 to 3 days.
When inducing calcification through OM in saos-2 cells, the cells were treated with concentrations of […] of the TNAP inhibitor test compounds with the OM replacement cycle, except for the control group (OM).
After 7 days of OM induction, the medium was removed from each well and the plate was washed twice with PBS. Cells were fixed with 4% paraformaldehyde for 1 hour, then the fixative was removed and washed twice with deionized water (DW). ARS solution was added to the plate and shaken for 1 hour to stain the cells. When the cells were sufficiently stained red, the dye was removed, the cells were washed carefully with DW, dried, and then photographs were taken of the stained cells. The red-stained area represents calcification induced by OM, and the degree of calcification was determined based on the degree of redness. To quantify this, 10% cetylpyridinium chloride was dispensed into the wells and the dye was dissolved. The dye-dissolved solution was transferred to each well of a 96 well plate and absorbance was measured at 540 nm.
The degree of decrease in the measured absorbance by the test compounds based on the absorbance for OM was evaluated as the degree of inhibition of calcification.

pIC50: −log10 of the molar value. Structures can show the parent of a compound that is named as a salt.

What is called pIC50 is the negative decadic logarithm of the IC50, by convention in mol/L. One may read the inhibition as the drop in the measured response relative to a control, in per cent. In test [1], `COc1ccc(-c2cnn(-c3ccncc3)c2)cc1S(=O)(=O)Nc1cnc2c(c1)C(=O)NCC2` [Example 120, 2-methoxy-N-(5-oxo-5,6,7,8-tetrahydro-1,6-naphthyridine-3-yl)-5-(1-(pyridine-4-yl)-1H-pyrazole-4-yl)benzenesulfonamide] had a pIC50 of 6.00 to 7.00. Moreover, the inhibition at 1 µM in test [2] was less than 0%.

The compound `COc1ccc(F)cc1S(=O)(=O)Nc1cnc2c(c1)C(=O)NC2` [Example 4, 5-fluoro-2-methoxy-N-(5-oxo-6,7-dihydro-5H-pyrrolo[3,4-b]pyridine-3-yl)benzenesulfonamide] had a pIC50 in test [1] of 7.00 to 8.00. Also, the inhibition at 1 µM in test [2] was no less than 50%.

Turning to `COc1ccc(-c2cnn(C(C)C(=O)O)c2)cc1S(=O)(=O)Nc1cnc2c(c1)C(=O)NCC2` (stereo not shown) [Example 43, 2-(4-(4-methoxy-3-(N-(5-oxo-5,6,7,8-tetrahydro-1,6-naphthyridine-3-yl)sulfamoyl)phenyl)-1H-pyrazole-1-yl)propanoic acid], the pIC50 in test [1] was 7.00 to 8.00. Also, the inhibition at 1 µM in test [2] is no less than 50%.

In test [1], `COc1ccc(-c2cnn(C(C)(C)C(N)=O)c2)cc1S(=O)(=O)Nc1cnc2c(c1)C(=O)NCC2` [Example 58, 2-(4-(4-methoxy-3-(N-(5-oxo-5,6,7,8-tetrahydro-1,6-naphthyridine-3-yl)sulfamoyl)phenyl)-1H-pyrazole-1-yl)-2-methylpropanamide] had a pIC50 of no more than 6.00. In test [2], the inhibition at 1 µM lay within 0 to 50%.

The compound `COc1ccc(Cl)cc1S(=O)(=O)Nc1cnc2c(c1)CNCC2` [Example 92, 5-chloro-2-methoxy-N-(5,6,7,8-tetrahydro-1,6-naphthyridine-3-yl)benzenesulfonamide hydrochloride] showed a pIC50 in test [1] of 7.00 to 8.00. Also, the inhibition at 1 µM in test [2] is no less than 50%.

Regarding `CCOC(=O)Cn1cc(-c2ccc(OC)c(S(=O)(=O)Nc3cnc4c(c3)C(=O)NCC4)c2)cn1` [Example 68, ethyl 2-(4-(4-methoxy-3-(N-(5-oxo-5,6,7,8-tetrahydro-1,6-naphthyridine-3-yl)sulfamoyl)phenyl)-1H-pyrazole-1-yl)acetate], the pIC50 in test [1] was 7.00 to 8.00. In addition, the inhibition at 1 µM in test [2] is no less than 50%.

The compound `COc1ccc(-c2ccncc2)cc1S(=O)(=O)Nc1cnc2c(c1)C(=O)NCC2` [Example 31, 2-methoxy-N-(5-oxo-5,6,7,8-tetrahydro-1,6-naphthyridine-3-yl)-5-(pyridine-4-yl)benzenesulfonamide] gave a pIC50 in test [1] of 6.00 to 7.00. Moreover, the inhibition at 1 µM in test [2] was no less than 50%.

In test [1], `O=C1NCc2ncc(NS(=O)(=O)c3cc(F)cc4c3OCC4)cc21` [Example 21, 5-fluoro-N-(5-oxo-6,7-dihydro-5H-pyrrolo[3,4-b]pyridine-3-yl)-2,3-dihydrobenzofuran-7-sulfonamide] showed a pIC50 of no more than 6.00. Further, the inhibition at 1 µM in test [2] is less than 0%.

In test [1], `COc1ccc(-c2ccc(C(=O)O)cc2)cc1S(=O)(=O)Nc1cnc2c(c1)C(=O)NCC2` [Example 34, 4'-methoxy-3'-(N-(5-oxo-5,6,7,8-tetrahydro-1,6-naphthyridine-3-yl)sulfamoyl)-[1,1'-biphenyl]-4-carboxylic acid] had a pIC50 of 6.00 to 7.00. In addition, in test [2], the inhibition at 1 µM was no less than 50%.

In test [1], `COc1ccc(OC)c(S(=O)(=O)Nc2cnc3c(c2)C(=O)NC3)c1` [Example 3, 2,5-dimethoxy-N-(5-oxo-6,7-dihydro-5H-pyrrolo[3,4-b]pyridine-3-yl)benzenesulfonamide] showed a pIC50 of 7.00 to 8.00. Besides, the inhibition at 1 µM in test [2] is no less than 50%.

`COc1ccc(-c2cnn(-c3ccccc3)c2)cc1S(=O)(=O)Nc1cnc2c(c1)C(=O)NCC2` [Example 124, 2-methoxy-N-(5-oxo-5,6,7,8-tetrahydro-1,6-naphthyridine-3-yl)-5-(1-phenyl-1H-pyrazole-4-yl)benzenesulfonamide] showed a pIC50 in test [1] of 6.00 to 7.00. The inhibition at 1 µM in test [2] is less than 0%.
